Data from paper PMC9239247, “Listeria monocytogenes TcyKLMN Cystine/Cysteine Transporter Facilitates Glutathione Synthesis and Virulence Gene Expression” (mBio, 2022).

Target: T1, TcyK (Listeria monocytogenes, UniProt A0A0H3GMT4)
T1 construct: gene LMRG_01494; residues 38-286, without membrane-anchoring domain; N-terminal His-tag (pET-19b, cleavage not mentioned); codon-optimised, E. coli BL21-Gold(DE3)
Assay: isothermal titration calorimetry
Assay type: binding

T1 sequence (A0A0H3GMT4 entry or part of it): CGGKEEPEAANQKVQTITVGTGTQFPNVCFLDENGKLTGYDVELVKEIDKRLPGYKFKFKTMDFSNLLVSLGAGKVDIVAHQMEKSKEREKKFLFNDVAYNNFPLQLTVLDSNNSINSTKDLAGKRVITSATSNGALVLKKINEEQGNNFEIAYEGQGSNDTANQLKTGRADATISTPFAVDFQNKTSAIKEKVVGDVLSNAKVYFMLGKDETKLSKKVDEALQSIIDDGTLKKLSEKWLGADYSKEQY

SMILES | Kd
N[C@@H](CSSC[C@H](N)C(=O)O)C(=O)O [CSSC, cystine] | ~13 µM
N[C@@H](CS)C(=O)O [Cys, L-cysteine] | ~66.7 µM
